These results are taken from patent US20080070961A1, “Polymorphs of N-(2-acetyl-4,6-dimethylphenyl)-3-{[(3,4 dimethyl-5-isoxazolyl)-amino]sulfonyl}-2-thiophene-carboxamide” (priority 2006, published 2008).

Values after ≈ are worked out from the molar mass of the structure shown. “Also recorded” adds a separate entry of the source.

Data set [1] in a line: Interconversion experiments (slurries of two forms, XRPD). The class given is physicochemical. The protocol: Interconversion experiments were carried out by making slurries containing two forms of N-(2-acetyl-4,6-dimethylphenyl)-3 -{[(3,4-dimethyl-5-isoxazolyl)amino]-sulfonyl}-2-thiophenecaboxamide in saturated toluene, methanol/water, or alcohol solutions. The slurries were agitated for various time periods at either ambient temperature or at 45° C. The insoluble solids were recovered by filtration and analyzed using XRPD.

Data set [2] can be described thus: Grinding experiments (mortar and pestle, XRPD). The class given is physicochemical. The protocol: N-(2-acetyl-4,6-dimethylphenyl)-3-{[(3 ,4-dimethyl-5-isoxazolyl)amino]-sulfonyl}-2-thiophenecaboxamide material was ground by hand with a mortar and pestle for 30 sec, 1, 2, and 5 minutes. The samples were then analyzed by XRPD.
The nature of data set [3]: Solubility of Forms A, C and E in ethanol (gravimetric). As to conditions: for stability of the forms (order, based on the solubility data): ethanol solubility data; for AVERAGE SOLUBILITY / solubility at 30 min / solubility at 60 min / XRPD of remaining solid after the solubility experiment (form conversion) / relative solubility of the forms: ethanol; for solubility at 30 min / solubility at 60 min: organic solvent or mixture, thermodynamic from solid, AVERAGE SOLUBILITY; for XRPD of remaining solid after the solubility experiment (form conversion) / relative solubility of the forms: various temperatures.
Protocol: (§1) Saturated solutions of this compound in ethanol were prepared and each solution was heated to either 25, 27, 35, 40 or 50° C.' and stirred for 30 minutes. The samples were filtered into a receiving flask and were heated at the same temperatures and stirred for another 30 minutes. Samples were removed from these flasks and were filtered into a tared vial. The remaining solution was heated and stirred for another 30 minutes. Samples were again removed from these flasks and were filtered into another tared vial. The solvents in the tared vials were removed using a rotary evaporator and the weights of the solids in the tared vials were recorded and were used to calculate solubility.
(§2) The solubilitites reported were determined gravimetrically, therefore, fluctuations in the data are possible.

Data set [4] can be described thus: Moisture sorption/desorption. The class given is physicochemical. Conditions: for XRPD Results after the moisture sorption/desorption experiment: sorption 5 to 95% RH, desorption 95 to 5% RH. The protocol:
The moisture sorption/desorption data was collected on a VT SGA-100 moisture balance system. For sorption isotherms, a sorption range of 5 to 95% relative humidity (RH) and a desorption range of 95 to 5% RH in 10% RH increments were used for analysis. The sample was not dried prior to analysis. Equilibrium criteria used for analysis was less than 0.0100% weight change in 5 minutes with a maximum equilibration time of 3 hours if the weight criterion was not met. Data was not corrected for the initial moisture content of the samples.

A short description of data set [5]: Stress studies (humidity / temperature, XRPD). The class given is physicochemical. The protocol:
Samples of N-(2-acetyl-4,6-dimethylphenyl)-3-{[(3,4-dimethyl-5-isoxazolyl)amino]-sulfonyl}-2-thiophenecaboxamide were stressed at 22, 58, 75, and 93% RH under ambient temperature for 3 days. One sample was also placed in a 40 ° C. oven for 11 days. Samples of amorphous material were also placed in a 40 ° C. oven for 36 days or in a 70 ° C. oven for 4 days. The solids were then analyzed by XRPD.

Data set [6] can be described thus: Approximate solubilities of Form A in various solvents at ambient temperature. Conditions: for solubility: thermodynamic from solid, approximate. The class given is physicochemical. The protocol:
The approximate solubilities were estimated from experiments based on the total solvent used to give a solution. The actual solubilities may be greater than those calculated because of the use of too-large solvent aliquots or a slow rate of dissolution. […] If the solid dissolved before the whole aliquot of solvent was added the solubility is listed as “greater than”.

A short description of another data set: physchem. Conditions: organic solvent or mixture, thermodynamic from solid, AVERAGE SOLUBILITY

Protocol for physchem: as §1, §2

Take `CC(=O)c1cc(C)cc(C)c1NC(=O)c1sccc1S(=O)(=O)Nc1onc(C)c1C` [A vs. C]: the “XRPD Results after slurry” value in data set [1] (1:1 methanol:water, 12 days) is on record as “A + C, SS”; in data set [1] (toluene RT, 12 days), “A + C”; in data set [1] (toluene, 45° C., 5 days), “A + C”.

With `CC(=O)c1cc(C)cc(C)c1NC(=O)c1sccc1S(=O)(=O)Nc1onc(C)c1C` [A vs. E], the “XRPD Results after slurry” value in data set [1] (ethanol, 20 days) was “A + E(min)”; in data set [1] (ethanol, 27 days) it was “A + pk 4°”; in data set [1] (toluene RT, 20 days) it was “A, SS”; in data set [1] (toluene, 45° C., 5 days), “A(PO)”.

Take `CC(=O)c1cc(C)cc(C)c1NC(=O)c1sccc1S(=O)(=O)Nc1onc(C)c1C` [A(PO)]: the “XRPD Pattern after grinding” value in data set [2] (grind time 2 min) is “C + E”.

Consider `CC(=O)c1cc(C)cc(C)c1NC(=O)c1sccc1S(=O)(=O)Nc1onc(C)c1C` [C vs. E], for which the “XRPD Results after slurry” value in data set [1] (toluene, 45° C., 5 days) was “A + C”.

On to `CC(=O)c1cc(C)cc(C)c1NC(=O)c1sccc1S(=O)(=O)Nc1onc(C)c1C` [Form A, N-(2-acetyl-4,6-dimethylphenyl)-3-{[(3,4dimethyl-5-isoxazolyl)-amino]sulfonyl}-2-thiophenecarboxamide], for which the “stability of the forms (order, based on the solubility data)” value in data set [3] was “Form A >Form C >Form E”. The “AVERAGE SOLUBILITY” value in data set [3] (25 °C, 30 min) came out at 9.5 mg/mL; in data set [3] (25 °C, 60 min), 10.6 mg/mL; in data set [3] (40 °C, 30 min) it was 17.3 mg/mL; in data set [3] (40 °C, 60 min), 18.1 mg/mL. Besides, in data set [3] (50 °C, 30 min), the solubility at 30 min is 40.8 mg/mL (≈ 91.2 mM). Moreover, in data set [3] (50 °C, 60 min), the solubility at 60 min was 36.7 mg/mL (≈ 82 mM). Further, the “XRPD of remaining solid after the solubility experiment (form conversion)” value in data set [3] is “conversion to another form did not occur”. For the same compound, in data set [3], the “relative solubility of the forms” value is “less soluble form; also recorded: least soluble”. Besides, in data set [2] (grind time 1 min), the “XRPD Pattern after grinding” value was “A, SS”. In addition, the crystallinity upon grinding result in data set [2] (ground for up to 5 minutes, mortar and pestle) is recorded as “loses some crystallinity”. The “hygroscopicity (based on moisture sorption/desorption data)” value in data set [4] is given as “non-hygroscopic”. Also, the “Moisture Balance Results: weight loss at 5% RH” value in data set [4] is recorded as <0.1% weight loss at 5% RH,. Also, the “Moisture Balance Results: total weight gain at 95% RH” value (“Moisture Balance Results … at 95% RH” for short) in data set [4] is <0.1% total weight gain at 95% RH. In addition, in data set [4], the “XRPD Results after the moisture sorption/desorption experiment” value is given as “remained Form A”. In addition, in data set [5] (various conditions (22-93% RH 3 d; 40° C. 11 d)), the “form after stress, all conditions of Table 10” value is reported as “remained Form A”. The solubility was 250 mg/mL (≈ 559 mM) in data set [6] (N,N-dimethylformamide, organic solvent or mixture); 87 mg/mL (≈ 194 mM) in data set [6] (acetone, organic solvent or mixture); 72 mg/mL (≈ 161 mM) in data set [6] (acetonitrile, organic solvent or mixture); 135 mg/mL (≈ 302 mM) in data set [6] (dichloromethane, organic solvent or mixture); below 9 mg/mL in data set [6] (diethyl ether, organic solvent or mixture); 144 mg/mL (≈ 322 mM) in data set [6] (dimethyl sulfoxide, organic solvent or mixture). In addition, the solubility was 9 mg/mL (≈ 20.1 mM) in data set [6] (ethanol, organic solvent or mixture); 21 mg/mL (≈ 46.9 mM) in data set [6] (ethyl acetate, organic solvent or mixture); below 9 mg/mL in data set [6] (hexanes, organic solvent or mixture); below 10 mg/mL in data set [6] (isopropanol, organic solvent or mixture); 21 mg/mL (≈ 46.9 mM) in data set [6] (methanol, organic solvent or mixture); below 9 mg/mL in data set [6] (propanol, organic solvent or mixture). Besides, the solubility in data set [6] (toluene, organic solvent or mixture) was 19 mg/mL (≈ 42.5 mM); in data set [6] (water) it was below 8 mg/mL. In addition, in data set [6] (diethyl other, hexanes, propanol and water), the “solubility (in words)” value is listed as “sparingly soluble”.

On to `CC(=O)c1cc(C)cc(C)c1NC(=O)c1sccc1S(=O)(=O)Nc1onc(C)c1C` [Form C, N-(2-acetyl-4,6-dimethylphenyl)-3-{[(3,4dimethyl-5-isoxazolyl)-amino]sulfonyl}-2-thiophenecarboxamide], for which, in data set [3], the “stability of the forms (order, based on the solubility data)” value was “Form A >Form C >Form E”; the “XRPD of remaining solid after the solubility experiment (form conversion)” value was “did not change form; also recorded: did not convert”; the “relative solubility of the forms” value is “higher solubility than Form A”. Besides, in data set [3] (25 °C, 30 min), the solubility at 30 min was found to be 16.1 mg/mL (≈ 36 mM). In data set [3] (25 °C, 60 min), the solubility at 60 min stood at 13.2 mg/mL (≈ 29.5 mM). In addition, the solubility at 30 min in data set [3] (40 °C, 30 min) amounted to 28.3 mg/mL (≈ 63.2 mM). Moreover, in data set [3] (40 °C, 60 min), the solubility at 60 min stood at 27.4 mg/mL (≈ 61.2 mM). In addition, the “AVERAGE SOLUBILITY” value in data set [3] (50 °C, 30 min) is given as 35.6 mg/mL. Moreover, the “AVERAGE SOLUBILITY” value in data set [3] (50 °C, 60 min) is on record as 45.1 mg/mL. Further, the “XRPD Pattern after grinding” value in data set [2] (grind time 2 min) is “remained Form C”. For the same compound, in data set [4], the “hygroscopicity (based on moisture sorption/desorption data)” value was “non-hygroscopic”, the “Moisture Balance Results: weight loss at 5% RH” value is recorded as <0.1% weight loss at 5% RH,, the “Moisture Balance Results … at 95% RH” value is <0.1% total weight gain at 95% RH and the “XRPD Results after the moisture sorption/desorption experiment” value is recorded as “remained Form C”. The “XRPD Results after slurry” value in data set [1] (ethanol, 16 days) is “remained the same form”.

In the case of `CC(=O)c1cc(C)cc(C)c1NC(=O)c1sccc1S(=O)(=O)Nc1onc(C)c1C` [Form E, N-(2-acetyl-4,6-dimethylphenyl)-3-{[(3,4dimethyl-5-isoxazolyl)-amino]sulfonyl}-2-thiophenecarboxamide], in “physchem” (27 °C), the solubility at 30 min was 12.7 mg/mL (≈ 28.4 mM) and the solubility at 60 min was found to be 11 mg/mL (≈ 24.6 mM). Moreover, in the data set “physchem” (35 °C), the solubility at 30 min came to 17.7 mg/mL (≈ 39.5 mM) and the solubility at 60 min worked out at 18.3 mg/mL (≈ 40.9 mM). In “physchem” (50 °C), the solubility at 30 min came to 40.8 mg/mL (≈ 91.2 mM) and the solubility at 60 min is 39.7 mg/mL (≈ 88.7 mM). Besides, in data set [4], the “hygroscopicity (based on moisture sorption/desorption data)” value is reported as “non-hygroscopic”, the “Moisture Balance Results: weight loss at 5% RH” value is on record as <0.1% weight loss at 5% RH,, the “Moisture Balance Results … at 95% RH” value is reported as 0.15% total weight gain at 95% RH and the “XRPD Results after the moisture sorption/desorption experiment” value was “remained Form E”. Besides, the “weight loss or gain during the moisture sorption/desorption experiment” value in data set [4] (whole experiment) is listed as below 0.2%.

Regarding `CC(=O)c1cc(C)cc(C)c1NC(=O)c1sccc1S(=O)(=O)Nc1onc(C)c1C` [amorphous, N-(2-acetyl-4,6-dimethylphenyl)-3-{[(3,4dimethyl-5-isoxazolyl)-amino]sulfonyl}-2-thiophenecarboxamide], the “Moisture Balance Results: weight loss at 5% RH” value in data set [4] is reported as <0.1% weight loss at 5% RH,. In addition, the “XRPD Results after the moisture sorption/desorption experiment” value in data set [4] was “remained amorphous; also recorded: does not recrystallize”. Besides, the “XRPD Pattern after stress” value is “amorphous” in data set [5] (40° C., 36 d); “a mixture of Forms E and C” in data set [5] (70° C., 4 d); “Forms C and E” in data set [5] (ambient, 92 d (approx. 3 months)).
